Reference: US20220009967A1, “Isolation and Semi-Synthesis of Rufomycin Analogs” (THE BOARD OF TRUSTEES OF THE UNIVERSITY OF ILLINOIS, priority 2020, published 2022)

Tests used:
[1] = target: caseinolytic protein C1 (ClpC1) N-terminal domain (NTD) (Mycobacterial (Mycobacterium tuberculosis by context)) (UniProt P9WPC9); test: SPR (Biacore T200), 1:1 Langmuir fit, KD=kd/ka
[2] = target: caseinolytic protein C1 (ClpC1) full-length protein (FL) (Mycobacterial (Mycobacterium tuberculosis by context)) (UniProt P9WPC9); test: SPR (Biacore T200), 1:1 Langmuir fit, KD=kd/ka
M. tuberculosis = test: MIC against M. tuberculosis, microplate Alamar Blue assay (MABA); format: cell-based, Mycobacterium tuberculosis; parameters: MIC90: unit not given beside the values; details: MABA; Table 3, unit not given
Method: MICs against M. tuberculosis. The MIC was defined as the minimum concentration of the compound required to achieve a reduction in fluorescence by 90% relative to the untreated bacterial controls. The anti-TB activity was determined by the microplate Alamar Blue assay (MABA) as previously described (Choules et al., Antimicrob. Agents Chemother. 2019, 63, e02204-02218).

Mycobacterial ClpC1-NTD = target: T1, Mycobacterial ClpC1-NTD (Mycobacterium tuberculosis, UniProt P9WPC9); test: SPR binding affinity to ClpC1-NTD; details: SPR, ClpC1 N-terminal domain; Table 3, unit inferred; read-out: KD NTD
T1 construct: caseinolytic protein C1 (ClpC1) N-terminal domain (NTD)
Method: (§1) Analysis of binding affinity to Mycobacterial ClpC1-NTD and FL by SPR. SPR binding assay was performed using a previously reported method (Choules et al., Antimicrob. Agents Chemother. 2019, 63, e02204-02218; Wolf et al., ACS Infect. Dis. 2019, 5, 829-840). Kinetic rate constants (ka and kd) were determined by fitting the double-reference data globally to the 1:1 Langmuir model embedded in the Biacore T200 evaluation software (v3.0). KD values were then calculated from the two rate constants (KD=kd/ka). Smaller KD values represent tighter binding affinities.

Mycobacterial ClpC1 FL = target: T2, Mycobacterial ClpC1 FL (Mycobacterium tuberculosis, UniProt P9WPC9); test: SPR binding affinity to ClpC1 full-length protein (FL); details: SPR, ClpC1 full-length protein; Table 3, unit inferred; read-out: KD FL
T2 construct: N-terminal domain (NTD) and the full-length protein (FL) by surface plasmon resonance (SPR)
Method: as §1

[3] = Interconversion (epimerization) of rufomycin diastereomers, HPLC analysis; format: physicochemical
From the text: The rufomycins 32-35 were identified as four diastereomers, arising from different orientations of the hydroxyl and methyl groups in the hydroxy-methyl piperidinone moiety. Rufomycin 32 was assigned the (AA5, 4S,5R) absolute configuration based on the ROESY correlations, and further confirmed by the cocrystal structures of rufomycin 32 and ClpC1-NTD. Thus, rufomycin 32 is that congener previously identified as ilamycin, Compound 4, and ilamycin C1 (PCT/US2000/015044). […] The assigned 4S,5S (AA5) absolute configuration for rufomycin 33 was validated by the ROESY correlations. Rufomycin 34 with the absolute configuration 4R,5R (AA5) was established by the ROESY cross-peaks. […] After being purified by semi-prep HPLC, rufomycin 35 was concentrated under a stream of forced air and freeze drying to reduce interconversion.

Sequence of caseinolytic protein C1 (ClpC1) full-length protein (FL) (Mycobacterial (Mycobacterium tuberculosis by context)) (P9WPC9 whole entry): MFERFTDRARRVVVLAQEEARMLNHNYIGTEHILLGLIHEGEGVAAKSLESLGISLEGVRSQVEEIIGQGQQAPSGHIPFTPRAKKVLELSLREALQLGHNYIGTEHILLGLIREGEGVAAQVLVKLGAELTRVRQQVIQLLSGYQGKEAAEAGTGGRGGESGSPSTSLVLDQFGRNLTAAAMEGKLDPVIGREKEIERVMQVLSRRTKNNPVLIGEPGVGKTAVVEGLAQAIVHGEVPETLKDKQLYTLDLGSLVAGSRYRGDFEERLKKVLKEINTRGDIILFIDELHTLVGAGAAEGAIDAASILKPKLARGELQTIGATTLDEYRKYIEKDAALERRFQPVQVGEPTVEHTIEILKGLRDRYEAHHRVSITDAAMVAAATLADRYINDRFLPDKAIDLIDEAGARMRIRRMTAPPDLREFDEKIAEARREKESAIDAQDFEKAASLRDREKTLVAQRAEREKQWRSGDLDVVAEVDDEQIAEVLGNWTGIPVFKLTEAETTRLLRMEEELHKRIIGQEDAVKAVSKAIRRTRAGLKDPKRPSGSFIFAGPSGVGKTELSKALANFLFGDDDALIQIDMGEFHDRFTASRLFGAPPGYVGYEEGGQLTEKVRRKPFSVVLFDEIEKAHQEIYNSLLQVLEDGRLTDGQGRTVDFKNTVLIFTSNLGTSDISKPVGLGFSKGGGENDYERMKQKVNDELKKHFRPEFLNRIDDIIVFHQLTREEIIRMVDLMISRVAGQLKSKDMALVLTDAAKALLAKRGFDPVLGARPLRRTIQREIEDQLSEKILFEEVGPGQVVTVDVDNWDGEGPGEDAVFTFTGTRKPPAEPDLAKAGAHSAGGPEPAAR
T2 sequence (P9WPC9 whole entry, the tested form may be a part): as the sequence (P9WPC9 whole entry) above
T1 sequence (P9WPC9 2-144): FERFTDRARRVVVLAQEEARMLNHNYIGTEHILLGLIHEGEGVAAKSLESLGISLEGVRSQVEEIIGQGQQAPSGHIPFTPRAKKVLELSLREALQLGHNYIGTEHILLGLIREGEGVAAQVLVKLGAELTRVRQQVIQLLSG
Sequence of caseinolytic protein C1 (ClpC1) N-terminal domain (NTD) (Mycobacterial (Mycobacterium tuberculosis by context)) (P9WPC9 1-145 limits assumed): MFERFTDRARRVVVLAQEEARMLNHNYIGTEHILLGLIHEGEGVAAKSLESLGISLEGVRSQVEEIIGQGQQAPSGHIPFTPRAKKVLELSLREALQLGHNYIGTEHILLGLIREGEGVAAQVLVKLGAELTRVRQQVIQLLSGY

Compound	Kd [1] [nM]	Kd [2] [nM]	MIC90 (M. tuberculosis)	Kd (Mycobacterial ClpC1-NTD) [nM]	Kd (Mycobacterial ClpC1 FL) [nM]	interconversion / stability of diastereomers (in words) ([3]; HPLC analysis, hemi-aminal epimers)	epimerization to rufomycin 34 ([3]; during concentration, quickly) [%]
rufomycins 1 and 2 mixture (peptide)	70	70	–	–	–	–	–
C/C=C/C[C@@H]1NC(=O)[C@H](CC(C)C)N2C(=O)[C@H](C[C@@H](C)[C@@H]2O)N(C)C(=O)[C@H](C)NC(=O)[C@H](Cc2ccc(O)c([N+](=O)[O-])c2)NC(=O)[C@H](CC(C)C)N(C)C(=O)[C@H](Cc2cn(C(C)(C)[C@H]3CO3)c3ccccc23)NC1=O [rufomycin 35]	–	–	47	186	209	the most unstable diastereomer	~50
